Source: PubChem BioAssay (NCI)
Values joined by “and” are separate entries in the source; they are usually repeats but may differ in a detail not shown here. Equal entries are not always repeated.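 These data come from cells grown in 96-well plates and exposed to compound for 48 hours at five concentrations. GI50 = concentration required for 50% inhibition of growth. TGI: total growth inhibition.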

What was measured:
Assay in all cases: DTP human tumour cell line panel, 48 h
K-562 leukemia = system: K-562 leukemia
UACC-257 melanoma = system: UACC-257 melanoma
HL-60(TB) leukemia = system: HL-60(TB) leukemia
PC-3 prostate = system: PC-3 prostate
SF-539 CNS = system: SF-539 CNS
IGROV1 ovarian = system: IGROV1 ovarian
SK-MEL-2 melanoma = system: SK-MEL-2 melanoma
NCI/ADR-RES ovarian = system: NCI/ADR-RES ovarian
CCRF-CEM leukemia = system: CCRF-CEM leukemia
A549 NSCLC = system: A549 NSCLC
OVCAR-3 ovarian = system: OVCAR-3 ovarian
M14 melanoma = system: M14 melanoma
SW-620 colon = system: SW-620 colon
SF-295 CNS = system: SF-295 CNS
HS 578T breast = system: HS 578T breast
SNB-19 CNS = system: SNB-19 CNS
MCF7 breast = system: MCF7 breast
COLO 205 colon = system: COLO 205 colon
UACC-62 melanoma = system: UACC-62 melanoma
HOP-62 NSCLC = system: HOP-62 NSCLC
NCI-H460 lung = system: NCI-H460 lung
SN12C renal = system: SN12C renal
HT29 colon = system: HT29 colon
EKVX NSCLC = system: EKVX NSCLC
MDA-MB-231 breast = system: MDA-MB-231 breast
SF-268 CNS = system: SF-268 CNS
NCI-H522 lung = system: NCI-H522 lung
A498 renal = system: A498 renal
TK-10 renal = system: TK-10 renal
NCI-H23 lung = system: NCI-H23 lung
LOX IMVI melanoma = system: LOX IMVI melanoma
ACHN renal = system: ACHN renal
OVCAR-5 ovarian = system: OVCAR-5 ovarian
U251 CNS = system: U251 CNS
MOLT-4 leukemia = system: MOLT-4 leukemia
HCT-116 colon = system: HCT-116 colon
BT-549 breast = system: BT-549 breast
RPMI-8226 leukemia = system: RPMI-8226 leukemia
HCT-15 colon = system: HCT-15 colon
RXF 393 renal = system: RXF 393 renal
DU-145 prostate = system: DU-145 prostate
KM12 colon = system: KM12 colon
SK-MEL-5 melanoma = system: SK-MEL-5 melanoma
UO-31 renal = system: UO-31 renal
HCC-2998 colon = system: HCC-2998 colon
786-0 renal = system: 786-0 renal
OVCAR-8 ovarian = system: OVCAR-8 ovarian
SR leukemia = system: SR leukemia
HOP-92 NSCLC = system: HOP-92 NSCLC
CAKI-1 renal = system: CAKI-1 renal
MALME-3M melanoma = system: MALME-3M melanoma

In the case of `COc1ccc2c(c1)[nH]c(=O)c1c3ccccc3cn21`, the GI50 (K-562 leukemia) is reported as 8.92 nM, the GI50 (UACC-257 melanoma) is reported as 5130 nM and 12700 nM and the TGI (UACC-257 melanoma) is reported as 30800 nM. It also gave a GI50 (HL-60(TB) leukemia) of 11.4 nM, a TGI (HL-60(TB) leukemia) of 60.7 nM and a GI50 (PC-3 prostate) of 36.8 nM. For the same molecule, the TGI (PC-3 prostate) was 2550 nM and 3040 nM, the GI50 (SF-539 CNS) was 22.8 nM and the TGI (SF-539 CNS) was 70.4 nM and 207 nM. The GI50 (IGROV1 ovarian) was 73.4 nM and < 11.4 nM, the TGI (IGROV1 ovarian) was 2270 nM and 16000 nM and the TGI (SK-MEL-2 melanoma) was 2490 nM and 18700 nM. For the same molecule, the GI50 (NCI/ADR-RES ovarian) was 21.3 nM, the TGI (NCI/ADR-RES ovarian) was 57.5 nM and the GI50 (CCRF-CEM leukemia) was 30 nM. The GI50 (A549 NSCLC) was 67 nM, the TGI (A549 NSCLC) was 1650 nM and 1690 nM and the GI50 (OVCAR-3 ovarian) was 22.3 nM. It also gave a TGI (OVCAR-3 ovarian) of 65.2 nM, a TGI (M14 melanoma) of 12900 nM and a GI50 (SW-620 colon) of 26.4 nM. The TGI (SW-620 colon) was 1420 nM and 1510 nM, the GI50 (SF-295 CNS) was 26.8 nM and the TGI (SF-295 CNS) was 1050 nM. The GI50 (HS 578T breast) was 50.8 nM, the TGI (HS 578T breast) was 2710 nM and 14100 nM and the GI50 (SNB-19 CNS) was 38.7 nM. The TGI (SNB-19 CNS) was 4050 nM and 26400 nM, the GI50 (MCF7 breast) was 28.2 nM and < 37.8 nM and the TGI (MCF7 breast) was 1460 nM and 12700 nM. The GI50 (COLO 205 colon) was 41.2 nM, the TGI (COLO 205 colon) was 1160 nM and the GI50 (UACC-62 melanoma) was 73.8 nM. For the same molecule, the TGI (UACC-62 melanoma) was 1890 nM and 13300 nM, the GI50 (HOP-62 NSCLC) was 31.2 nM and the TGI (HOP-62 NSCLC) was 1230 nM. For the same molecule, the GI50 (NCI-H460 lung) was 34.8 nM, the TGI (NCI-H460 lung) was 1120 nM and the GI50 (SN12C renal) was 57.1 nM and 280 nM. For the same molecule, the TGI (SN12C renal) was 2080 nM and 8970 nM, the GI50 (HT29 colon) was 34 nM and the GI50 (EKVX NSCLC) was 90.7 nM and < 47.8 nM. For the same molecule, the TGI (EKVX NSCLC) was 19100 nM, the GI50 (MDA-MB-231 breast) was 56.5 nM and 148 nM and the TGI (MDA-MB-231 breast) was 740 nM and 1080 nM. The GI50 (SF-268 CNS) was 73.8 nM, the GI50 (NCI-H522 lung) was 59.7 nM and the TGI (NCI-H522 lung) was 2280 nM and 1480 nM. For the same molecule, the GI50 (A498 renal) was 22.3 nM and < 37.5 nM, the GI50 (TK-10 renal) was 515 nM and 265 nM and the TGI (TK-10 renal) was 2430 nM and 2210 nM. For the same molecule, the TGI (NCI-H23 lung) was 3390 nM and 14600 nM, the GI50 (LOX IMVI melanoma) was 71.2 nM and the TGI (LOX IMVI melanoma) was 1770 nM and 2090 nM. The GI50 (ACHN renal) was 125 nM, the TGI (ACHN renal) was 1830 nM and 6410 nM and the GI50 (OVCAR-5 ovarian) was 101 nM. For the same molecule, the TGI (OVCAR-5 ovarian) was 7860 nM and 5560 nM, the GI50 (U251 CNS) was 43.6 nM and the TGI (U251 CNS) was 1520 nM and 4440 nM. The GI50 (MOLT-4 leukemia) was 77.8 nM, the TGI (MOLT-4 leukemia) was 2140 nM and 9950 nM and the GI50 (HCT-116 colon) was 39.5 nM. The TGI (HCT-116 colon) was 1320 nM and 1120 nM, the GI50 (BT-549 breast) was 54.9 nM and the TGI (BT-549 breast) was 2030 nM and 3830 nM. For the same molecule, the GI50 (RPMI-8226 leukemia) was 36.6 nM, the TGI (RPMI-8226 leukemia) was 1400 nM and 400 nM and the GI50 (HCT-15 colon) was 26.2 nM and < 17.7 nM. For the same molecule, the GI50 (RXF 393 renal) was 20.4 nM, the TGI (RXF 393 renal) was 3190 nM and 2470 nM and the TGI (DU-145 prostate) was 11900 nM. The GI50 (KM12 colon) was 33.1 nM and < 48.6 nM, the GI50 (SK-MEL-5 melanoma) was 28.2 nM and the TGI (SK-MEL-5 melanoma) was 1170 nM and 728 nM. For the same molecule, the GI50 (UO-31 renal) was 79.5 nM, the TGI (UO-31 renal) was 2260 nM and 5820 nM and the GI50 (HCC-2998 colon) was 18.3 nM. The TGI (HCC-2998 colon) was 49.2 nM, the GI50 (786-0 renal) was 41.3 nM and the TGI (786-0 renal) was 1840 nM and 2160 nM. The GI50 (OVCAR-8 ovarian) was 58.1 nM, the TGI (OVCAR-8 ovarian) was 2360 nM and 5180 nM and the TGI (SR leukemia) was 2040 nM. The GI50 (HOP-92 NSCLC) was 1010 nM and 2180 nM, the TGI (HOP-92 NSCLC) was 15900 nM and the GI50 (CAKI-1 renal) was 35.5 nM. The TGI (CAKI-1 renal) was 1970 nM and 5380 nM and the TGI (MALME-3M melanoma) was 14900 nM.
